Experimental data as given in ChEMBL document CHEMBL2390885, “Discovery of pyrido[2,3-d]pyrimidine-based inhibitors of HCV NS5A” (Bioorg Med Chem Lett, 2013).
Converted amounts (≈) assume the structure as drawn. The source made the active and inactive calls. No cut-off for these calls is given here.

Assays:
Hepatitis C virus [1] = experiment: Antiviral activity against Hepatitis C virus genotype 1b by replicon assay; assay type: functional, organism-based, Hepacivirus hominis
Hepatitis C virus [2] = experiment: Antiviral activity against Hepatitis C virus genotype 1a by replicon assay; assay type: functional, organism-based, Hepacivirus hominis; settings: subtype 1a
[3] = AUC in Sprague-Dawley rat at 5 mg/kg, po; assay type: ADME, organism-based; set-up: dose 5 mg/kg, route oral; settings: plasma
[4] = Oral bioavailability in Sprague-Dawley rat at 5 mg/kg; assay type: ADME, organism-based; settings: in vivo
[5] = Half life in Sprague-Dawley rat at 5 mg/kg, po; assay type: ADME, organism-based; set-up: dose 5 mg/kg, route oral; settings: in vivo
[6] = Cmax in Sprague-Dawley rat at 5 mg/kg, po; assay type: ADME, organism-based; set-up: dose 5 mg/kg, route oral; settings: in vivo
[7] = Half life in Sprague-Dawley rat at 5 mg/kg, iv; assay type: ADME, organism-based; set-up: dose 5 mg/kg, route intravenous; settings: in vivo
[8] = Clearance in Sprague-Dawley rat at 5 mg/kg, iv; assay type: ADME, organism-based; set-up: dose 5 mg/kg, route intravenous; settings: in vivo
[9] = Solubility in aqueous buffer; assay type: physicochemical
Hepatitis C virus [10] = experiment: Antiviral activity against Hepatitis C virus genotype 1b by replicon assay in presence of human plasma; assay type: functional, organism-based, Hepacivirus hominis
[11] = Clearance in dog at 2.5 mg/kg, iv; assay type: ADME, organism-based, Canis lupus familiaris; set-up: dose 2.5 mg/kg, route intravenous; settings: in vivo
[12] = Half life in dog at 2.5 mg/kg, iv; assay type: ADME, organism-based, Canis lupus familiaris; set-up: dose 2.5 mg/kg, route intravenous; settings: in vivo
[13] = AUC in dog at 2.5 mg/kg, po; settings: plasma
[14] = Cmax in dog at 2.5 mg/kg, po; settings: in vivo
[15] = Half life in dog at 2.5 mg/kg, po; settings: in vivo
[16] = Oral bioavailability in dog at 2.5 mg/kg; settings: in vivo
Hepatitis C virus [17] = experiment: Antiviral activity against Hepatitis C virus genotype 1b harboring NS5A Y93C/K26R double mutant infected in chimpanzee assessed as reduction in viral load at 2.5 mg/kg, iv administered every 8 hrs measured after 32 hrs; assay type: functional, organism-based; set-up: dose 2.5 mg/kg; settings: Hepacivirus hominis
Hepatitis C virus [18] = experiment: Antiviral activity against Hepatitis C virus genotype 1b harboring NS5A L28M mutant infected in chimpanzee assessed as reduction in viral load at 2.5 mg/kg, iv administered every 8 hrs measured after 32 hrs; assay type: functional, organism-based; set-up: dose 2.5 mg/kg; settings: Hepacivirus hominis
Hepatitis C virus [19] = experiment: Antiviral activity against Hepatitis C virus genotype 1b harboring NS5A Q24R/K26R double mutant infected in chimpanzee assessed as reduction in viral load at 2.5 mg/kg, iv administered every 8 hrs measured after 32 hrs; assay type: functional, organism-based; set-up: dose 2.5 mg/kg; settings: Hepacivirus hominis
Hepatitis C virus [20] = experiment: Antiviral activity against Hepatitis C virus genotype 1b harboring NS5A K26R mutant infected in chimpanzee assessed as reduction in viral load at 2.5 mg/kg, iv administered every 8 hrs measured after 32 hrs; assay type: functional, organism-based; set-up: dose 2.5 mg/kg; settings: Hepacivirus hominis
[21] = Half life in iv dosed chimpanzee; assay type: ADME, organism-based, Pan troglodytes; settings: in vivo
Hepatitis C virus [22] = experiment: Antiviral activity against Hepatitis C virus genotype 1b infected in chimpanzee assessed as log reduction in viral load at 2.5 mg/kg, iv administered every 8 hrs measured after 32 hrs relative to control; assay type: functional, Hepacivirus hominis

Row | SMILES | EC50 (Hepatitis C virus [1]) | EC50 (Hepatitis C virus [2]) | further results
1 | CC(C)c1ccc2c(Nc3cc(C(=O)N[C@H](CO)c4ccccc4)ccc3Sc3ccc(N)cc3)ncnc2n1 | 237 nM | 3030 nM | –
2 | C[C@H](NC(=O)c1ccc(Sc2ccc(N)cc2)c(Nc2ncnc3ncccc23)c1)c1ccccc1 | 6250 nM | 7890 nM | –
3 | CC(C)c1ccc2c(Nc3cc(C(=O)NC(C)c4cccc(F)c4)ccc3Sc3ccc(N)cc3)ncnc2n1 (configuration not stated) | 15 nM | 92 nM | –
4 | CC(C)c1ccc2c(Nc3cc(C(=O)NC(C)c4ccccn4)ccc3Sc3ccc(N)cc3)ncnc2n1 (configuration not stated) | 164 nM | 919 nM | –
5 | CC[C@@H](NC(=O)c1ccc(Sc2ccc(N)cc2)c(Nc2ncnc3nc(C(C)C)ccc23)c1)c1ccccc1 | 127 nM | 266 nM | –
6 | CC(C)c1ccc2c(Nc3cc(C(=O)N[C@@H](C)C4CCCCC4)ccc3Sc3ccc(N)cc3)ncnc2n1 | 45 nM | 240 nM | AUC [3]: 250 ng·h/mL; bioavailability [4]: 5%; half-life [5]: 0.8 h; Cmax [6]: 200 ng/mL; half-life [7]: 0.5 h; clearance [8]: 21.5 mL/min/kg
7 | C[C@H](NC(=O)c1ccc(Sc2ccc(N)cc2)c(Nc2ncnc3nc(C(F)(F)F)ccc23)c1)c1ccccc1 | 250 nM | 200 nM | –
8 | Cc1cccc(C(C)NC(=O)c2ccc(Sc3ccc(N)cc3)c(Nc3ncnc4nc(C(C)C)ccc34)c2)c1 (configuration not stated) | 10 nM | 100 nM | –
9 | COc1ccc([C@H](C)NC(=O)c2ccc(Sc3ccc(N)cc3)c(Nc3ncnc4nc(C(C)C)ccc34)c2)cc1 | 52 nM | 89 nM | –
10 | CC(C)c1ccc2c(Nc3cc(C(=O)N[C@@H]4CCc5ccccc54)ccc3Sc3ccc(N)cc3)ncnc2n1 | 13 nM | 16 nM | –
11 | CC(C)c1ccc2c(Nc3cc(C(=O)N[C@@H](C)c4ccccc4)ccc3Oc3ccc(N)cc3)ncnc2n1 | 790 nM | 2310 nM | –
12 | Cc1ccccc1C(C)NC(=O)c1ccc(Sc2ccc(N)cc2)c(Nc2ncnc3nc(C(C)C)ccc23)c1 (configuration not stated) | 30 nM | 300 nM | –
13 | CC(C)c1ccc2c(Nc3cc(C(=O)N[C@H](CCO)c4ccccc4)ccc3Sc3ccc(N)cc3)ncnc2n1 | 347 nM | 3270 nM | –
14 | CC(C)c1ccc2c(Nc3cc(C(=O)N[C@H]4CCc5ccccc54)ccc3Sc3ccc(N)cc3)ncnc2n1 | 54 nM | 451 nM | –
15 | CC(C)c1ccc2c(Nc3cc(C(=O)N[C@@H](C)c4ccccc4)ccc3Sc3ccc(N)cc3)ncnc2n1 | 7 nM | 45 nM | solubility [9]: 5 µM (≈ 2.67 µg/mL); EC50 (Hepatitis C virus [10]): 1200 nM; AUC [3]: 6490 ng·h/mL; bioavailability [4]: 42.4%; half-life [5]: 2.7 h; Cmax [6]: 1480 ng/mL; clearance [11]: 4.33 mL/min/kg; half-life [7]: 1.6 h; clearance [8]: 5.5 mL/min/kg; half-life [12]: 3.2 h; AUC [13]: 2350 ng·h/mL; Cmax [14]: 490 ng/mL; half-life [15]: 3 h; bioavailability [16]: 18.8%
16 | C[C@H](NC(=O)c1ccc(Sc2ccc(N)cc2)c(Nc2ncnc3nc(C(C)(C)C)ccc23)c1)c1ccccc1 | 3 nM | 46 nM | –
17 | CC(C)c1ccc2c(Nc3cc(C(=O)N[C@@H](C)c4ccc(F)cc4)ccc3Sc3ccc(N)cc3)ncnc2n1 | 2 nM | 10 nM | –
18 | CC(C)c1ccc2c(Nc3cc(C(=O)NC(C)(C)c4ccccc4)ccc3Sc3ccc(N)cc3)ncnc2n1 | 181 nM | 284 nM | –
19 | CC[C@H](NC(=O)c1ccc(Sc2ccc(N)cc2)c(Nc2ncnc3nc(C(C)C)ccc23)c1)c1ccccc1 | 33 nM | 35 nM | –
20 | CC(C)c1ccc2c(Nc3cc(C(=O)NC(C)c4cccc(Br)c4)ccc3Sc3ccc(N)cc3)ncnc2n1 (configuration not stated) | 9 nM | 33 nM | –
21 | CC(C)c1ccc2c(Nc3cc(C(=O)N[C@](C)(CO)c4ccccc4)ccc3Sc3ccc(N)cc3)ncnc2n1 | 60 nM | 1200 nM | –
22 | CC(C)c1ccc2c(Nc3cc(C(=O)N[C@@H](C)c4ccccc4)ccc3Sc3ccc(NS(C)(=O)=O)cc3)ncnc2n1 | 51 nM | 349 nM | –
23 | Cc1ccc([C@H](C)NC(=O)c2ccc(Sc3ccc(N)cc3)c(Nc3ncnc4nc(C(C)C)ccc34)c2)cc1 | 5 nM | 22 nM | AUC [3]: 600 ng·h/mL; bioavailability [4]: 12.2%; half-life [5]: 2.6 h; Cmax [6]: 160 ng/mL; half-life [7]: 0.7 h; clearance [8]: 18.3 mL/min/kg

Row | SMILES | EC50 (Hepatitis C virus [1]) | EC50 (Hepatitis C virus [2]) | further results
24 | CC(C)c1ccc2c(Nc3cc(C(=O)N[C@@H](C)c4ccc(Br)cc4)ccc3Sc3ccc(N)cc3)ncnc2n1 | 4 nM | 16 nM | AUC [3]: 3840 ng·h/mL; bioavailability [4]: 24.9%; half-life [5]: 2 h; Cmax [6]: 330 ng/mL; half-life [7]: 1.9 h; clearance [8]: 5.67 mL/min/kg
25 | CC(C)c1ccc2c(Nc3cc(C(=O)N[C@@](C)(CO)c4ccccc4)ccc3Sc3ccc(N)cc3)ncnc2n1 | 2 nM | 188 nM | Activity (Hepatitis C virus [17]): inactive; Activity (Hepatitis C virus [18]): inactive; Activity (Hepatitis C virus [19]): inactive; Activity (Hepatitis C virus [20]): inactive; solubility [9]: 19.7 µM (≈ 11.1 µg/mL); half-life [21]: 4.1 h; FC (Hepatitis C virus [22]): 1.65; EC50 (Hepatitis C virus [10]): 34 nM; AUC [3]: 900 ng·h/mL; bioavailability [4]: 13.3%; half-life [5]: 2.7 h; Cmax [6]: 320 ng/mL; half-life [7]: 1.1 h; clearance [8]: 12.5 mL/min/kg
26 | CC(C)c1ccc2c(Nc3cc(C(=O)N[C@@H](C)c4ccc5ccccc5c4)ccc3Sc3ccc(N)cc3)ncnc2n1 | 30 nM | 340 nM | –
27 | CC(C)c1ccc2c(Nc3cc(C(=O)N[C@@H](C)c4ccccc4C(F)(F)F)ccc3Sc3ccc(N)cc3)ncnc2n1 | 20 nM | 370 nM | –
28 | CC(C)c1ccc2c(Nc3cc(C(=O)N[C@@H](C)c4ccccc4Br)ccc3Sc3ccc(N)cc3)ncnc2n1 | 28 nM | 169 nM | –
29 | Cc1ccc2c(Nc3cc(C(=O)N[C@@H](C)c4ccccc4)ccc3Sc3ccc(N)cc3)ncnc2n1 | 600 nM | 1200 nM | –
30 | CC(C)c1ccc2c(Nc3cc(C(=O)N[C@@H](C)c4cccc(C(F)(F)F)c4)ccc3Sc3ccc(N)cc3)ncnc2n1 | 21 nM | 210 nM | –
31 | CC(C)c1ccc2c(Nc3cc(C(=O)NC(C)c4ccc(C(F)(F)F)cc4)ccc3Sc3ccc(N)cc3)ncnc2n1 (configuration not stated) | 41 nM | 66 nM | –
32 | CC(C)c1ccc2c(Nc3cc(C(=O)NC4(c5ccccc5)CC4)ccc3Sc3ccc(N)cc3)ncnc2n1 | 700 nM | 1070 nM | –
33 | CC(C)c1ccc2c(Nc3cc(C(=O)N[C@H](c4ccccc4)C(F)(F)F)ccc3Sc3ccc(N)cc3)ncnc2n1 | 2 nM | 13 nM | AUC [3]: 3890 ng·h/mL; bioavailability [4]: 18.7%; half-life [5]: 1.8 h; Cmax [6]: 930 ng/mL; half-life [7]: 2.9 h; clearance [8]: 4 mL/min/kg
34 | CC(C)c1ccc2c(Nc3cc(C(=O)NCc4ccccc4)ccc3Sc3ccc(N)cc3)ncnc2n1 | 130 nM | 150 nM | –
35 | CC(C)c1ccc2c(Nc3cc(C(=O)N[C@H](C)c4ccccc4)ccc3Sc3ccc(N)cc3)ncnc2n1 | 100 nM | 180 nM | –
36 | CC(C)c1ccc2c(Nc3cc(C(=O)N[C@@H](CCO)c4ccccc4)ccc3Sc3ccc(N)cc3)ncnc2n1 | 242 nM | 1470 nM | –
37 | COC(=O)Nc1ccc(Sc2ccc(C(=O)N[C@@H](C)c3ccccc3)cc2Nc2ncnc3nc(C(C)C)ccc23)cc1 | 4 nM | 42 nM | bioavailability [4]: 0%; half-life [7]: 0.4 h; clearance [8]: 12.8 mL/min/kg
38 | COc1ccccc1C(C)NC(=O)c1ccc(Sc2ccc(N)cc2)c(Nc2ncnc3nc(C(C)C)ccc23)c1 (configuration not stated) | 40 nM | 610 nM | –
39 | CC(C)c1ccc2c(Nc3cc(C(=O)N[C@@H](C)c4ccccc4)ccc3Sc3ccc(O)cc3)ncnc2n1 | 120 nM | 690 nM | –
40 | CC(C)c1ccc2c(Nc3cc(C(=O)NC(C)c4ccncc4)ccc3Sc3ccc(N)cc3)ncnc2n1 (configuration not stated) | 331 nM | 1170 nM | –
41 | CC(C)c1ccc2c(Nc3cc(C(=O)NC(C)c4ccccc4F)ccc3Sc3ccc(N)cc3)ncnc2n1 (configuration not stated) | 20 nM | 280 nM | –
42 | CC(C)c1ccc2c(Nc3cc(C(=O)N[C@@H](CO)c4ccccc4)ccc3Sc3ccc(N)cc3)ncnc2n1 | 314 nM | 4570 nM | –
43 | COc1cccc([C@H](C)NC(=O)c2ccc(Sc3ccc(N)cc3)c(Nc3ncnc4nc(C(C)C)ccc34)c2)c1 | 4 nM | 24 nM | –
44 | CC(=O)Nc1ccc(Sc2ccc(C(=O)N[C@@H](C)c3ccccc3)cc2Nc2ncnc3nc(C(C)C)ccc23)cc1 | 149 nM | 5030 nM | –
45 | CC(C)c1ccc2c(Nc3cc(C(=O)NC(C)c4cccnc4)ccc3Sc3ccc(N)cc3)ncnc2n1 (configuration not stated) | 377 nM | 1420 nM | –
46 | CC(C)c1ccc2c(Nc3cc(C(=O)NC(C)c4cccs4)ccc3Sc3ccc(N)cc3)ncnc2n1 (configuration not stated) | 159 nM | 378 nM | –
